{
  "source": "the NIST ThermoML archive (doi:10.1021/je100652b)",
  "conditions": "101.33 kPa, Liquid; for speed of sound: Sing-around technique in a fixed-path interferometer",
  "note": "± gives the expanded uncertainty stated by the source.",
  "data": [
    {"smiles": "Cc1ccc(C)cc1", "note": "[1,4-dimethylbenzene]", "values": [
      {"measurement": "mass density", "setting": "298.15 K", "result": "856.7 ± 0.39", "unit": "kg/m3"},
      {"measurement": "speed of sound", "setting": "298.15 K", "result": "1314 ± 2", "unit": "m/s"},
      {"measurement": "mass density", "setting": "308.15 K", "result": "847.88 ± 0.4", "unit": "kg/m3"},
      {"measurement": "speed of sound", "setting": "308.15 K", "result": "1272 ± 2", "unit": "m/s"}
    ]},
    {"smiles": "c1ccccc1", "note": "[benzene]", "values": [
      {"measurement": "mass density", "setting": "298.15 K", "result": "873.58 ± 0.36", "unit": "kg/m3"},
      {"measurement": "speed of sound", "setting": "298.15 K", "result": "1300 ± 2", "unit": "m/s"},
      {"measurement": "mass density", "setting": "308.15 K", "result": "862.96 ± 0.38", "unit": "kg/m3"},
      {"measurement": "speed of sound", "setting": "308.15 K", "result": "1260 ± 2", "unit": "m/s"}
    ]},
    {"smiles": "CCCCO", "note": "[butan-1-ol]", "values": [
      {"measurement": "mass density", "setting": "298.15 K", "result": "805.91 ± 0.56", "unit": "kg/m3"},
      {"measurement": "speed of sound", "setting": "298.15 K", "result": "1244 ± 2", "unit": "m/s"},
      {"measurement": "mass density", "setting": "308.15 K", "result": "798.21 ± 0.57", "unit": "kg/m3"},
      {"measurement": "speed of sound", "setting": "308.15 K", "result": "1212 ± 2", "unit": "m/s"}
    ]},
    {"smiles": "C1CCCCC1", "note": "[cyclohexane]", "values": [
      {"measurement": "mass density", "setting": "298.15 K", "result": "773.86 ± 0.51", "unit": "kg/m3"},
      {"measurement": "speed of sound", "setting": "298.15 K", "result": "1254 ± 2", "unit": "m/s"},
      {"measurement": "mass density", "setting": "308.15 K", "result": "764.46 ± 0.53", "unit": "kg/m3"},
      {"measurement": "speed of sound", "setting": "308.15 K", "result": "1212 ± 2", "unit": "m/s"}
    ]},
    {"smiles": "CCc1ccccc1", "note": "[ethylbenzene]", "values": [
      {"measurement": "mass density", "setting": "298.15 K", "result": "862.63 ± 0.38", "unit": "kg/m3"},
      {"measurement": "speed of sound", "setting": "298.15 K", "result": "1319 ± 2", "unit": "m/s"},
      {"measurement": "mass density", "setting": "308.15 K", "result": "853.89 ± 0.39", "unit": "kg/m3"},
      {"measurement": "speed of sound", "setting": "308.15 K", "result": "1276 ± 2", "unit": "m/s"}
    ]},
    {"smiles": "CCCCCCCO", "note": "[heptan-1-ol]", "values": [
      {"measurement": "mass density", "setting": "298.15 K", "result": "818.91 ± 0.55", "unit": "kg/m3"},
      {"measurement": "speed of sound", "setting": "298.15 K", "result": "1330 ± 2", "unit": "m/s"},
      {"measurement": "mass density", "setting": "308.15 K", "result": "811.94 ± 0.55", "unit": "kg/m3"},
      {"measurement": "speed of sound", "setting": "308.15 K", "result": "1292 ± 2", "unit": "m/s"}
    ]},
    {"smiles": "C=C(C)C(=O)OC", "note": "[methyl methacrylate]", "values": [
      {"measurement": "mass density", "setting": "298.15 K", "result": "937.6 ± 0.28", "unit": "kg/m3"},
      {"measurement": "speed of sound", "setting": "298.15 K", "result": "1182 ± 2", "unit": "m/s"},
      {"measurement": "mass density", "setting": "308.15 K", "result": "925.7 ± 0.3", "unit": "kg/m3"},
      {"measurement": "speed of sound", "setting": "308.15 K", "result": "1152 ± 2", "unit": "m/s"}
    ]},
    {"smiles": "CCCCCO", "note": "[pentan-1-ol]", "values": [
      {"measurement": "mass density", "setting": "298.15 K", "result": "810.76 ± 0.56", "unit": "kg/m3"},
      {"measurement": "speed of sound", "setting": "298.15 K", "result": "1274 ± 2", "unit": "m/s"},
      {"measurement": "mass density", "setting": "308.15 K", "result": "803.41 ± 0.57", "unit": "kg/m3"},
      {"measurement": "speed of sound", "setting": "308.15 K", "result": "1240 ± 2", "unit": "m/s"}
    ]},
    {"smiles": "Cc1ccccc1", "note": "[toluene]", "values": [
      {"measurement": "mass density", "setting": "298.15 K", "result": "862.21 ± 0.38", "unit": "kg/m3"},
      {"measurement": "speed of sound", "setting": "298.15 K", "result": "1304 ± 2", "unit": "m/s"},
      {"measurement": "mass density", "setting": "308.15 K", "result": "852.86 ± 0.39", "unit": "kg/m3"},
      {"measurement": "speed of sound", "setting": "308.15 K", "result": "1262 ± 2", "unit": "m/s"}
    ]}
  ]
}
